Among the data in ChEMBL document CHEMBL1131418, “Antiviral oligo- and polyribonucleotides containing selected triazolo[2,3-a]purines” (J Med Chem, 1998) are TI, IC50 and CC50 values, retold here.

Series [1] is described as follows: Therapeutic index for anti-HIV activity against HIV-IIIB in CEM-SS cells. It is filed as cell-based.
Series [2] has as its system MRC5. The series is described as follows: Inhibitory concentration for anti-HCMV activity against AD-169 strain in MRC-5 cells. It is filed as functional, cell-based. To be noted: Homo sapiens.
Series [3] in a line: Therapeutic index for anti-HCMV activity against AD-169 strain in MRC-5 cells. The conditions noted are these: human, mrc5. The format is cell-based.
Series [4] has as its system MRC5. The series is described as follows: Cytotoxic dose for anti-HCMV activity against AD-169 strain in MRC-5 cells. It is filed as functional. The conditions noted are these: Homo sapiens, read-out: CD50 (the source's name).

`CCN(CC)C(=S)[S][Na]` [DITIOCARB SODIUM] returned a TI in series [1] of over 67.

A word on the IC50: it is the point on the concentration scale where inhibition reaches its midpoint. Low readings indicate inhibition by little substance, high ones a need for much substance. `Nc1nc(O)c2ncn(COC(CO)CO)c2n1` [GANCICLOVIR] returned a half-inhibitory concentration (IC50) in series [2] of 6.3 µM. This compound also had a TI in series [3] of over 20. The CC50 in series [4] is over 125 µM.
